Data on nine compounds can be found in patent US4568693A, “N-Naphthoylglycine derivatives” (Ayerst, McKenna & Harrison, Inc., priority 1981, dated 1986).

The test system of test [1] is aldose reductase. The note with it: literature; cited from earlier work.
Test [2] relates to accumulation of dulcitol in the lenses. The experiment in a line: galactosemic rats, dulcitol accumulation in the lens. Type of test: in vivo, rat (Sprague-Dawley). As to conditions: 4 days, vs untreated galactosemic rats. The source says:
The aldose reductase inhibiting property of the compounds of this invention and the utilization of the compounds in preventing, diminishing and alleviating diabetic complications are demonstrable in experiments using galactosemic rats, see Dvornik et al., cited above. Such experiments are exemplified hereinbelow after the listing of the following general comments pertaining to these experiments:
(a) Four or more groups of six male rats, 50-70 g, Sprague-Dawley strain, were used. The first group, the control group, was fed a mixture of laboratory chow (rodent laboratory chow, Purina) and glucose at 20% (w/w %) concentration. The untreated galactosemic group was fed a similar diet in which galactose is substituted for glucose. The third group was fed a diet prepared by mixing a given amount of the test compound with the galactose containing diet. The concentration of galactose in the diet of the treated groups was the same as that for the untreated galactosemic group.
(b) After four days, the animals were killed by decapitation. The eyeballs were removed and punctured with a razor blade; the freed lenses were rolled gently on filter paper and weighed. The sciatic nerves were dissected as completely as possible and weighed. Both tissues were frozen and can be kept up to two weeks before being analyzed for dulcitol.
(c) The polyol determination was performed by a modification of the procedure of M. Kraml and L. Cosyns, Clin. Biochem., 2, 373 (1969). Only two minor reagent changes were made: (a) The rinsing mixture was an aqueous 5% (w/v) trichloroacetic acid solution and (b) the stock solution was prepared by dissolving 25 mg of dulcitol in 100 ml of an aqueous trichloroacetic acid solution. [N.B.: For each experiment the average value found in the tissue from rats fed the glucose diet was subtracted from the individual values found in the corresponding rat tissue to obtain the amount of polyol accumulated].
The figures under L and N represent the percentage decrease of dulcitol accumulation in the tissues of the lens and sciatic nerve, respectively, for treated rats as compared to untreated rats.

For test [3], the target named is T1, aldose reductase (Bos taurus, UniProt P16116).
T1 construct: the preparation of the enzyme from bovine lens; from tissue; host or cells: bovine lens
The experiment in a line: in vitro aldose reductase inhibition (modified Hayman and Kinoshita procedure). Type of test: biochemical, bovine. As to conditions: for inhibition at 10 µM: 10^-5 molar, read-out: % Inhibition at Different Molar Concentration (in vitro), 10^-5; for inhibition at 1 µM: 10^-6 molar, read-out: % Inhibition at Different Molar Concentration (in vitro), 10^-6; for inhibition at 0.1 µM: 10^-7 molar, read-out: % Inhibition at Different Molar Concentration (in vitro), 10^-7. The source says:
In the present case the procedure of Hayman and Kinoshita is modified in that the final chromatography step is omitted in the preparation of the enzyme from bovine lens.

As to `O=C(O)CN1C(=O)c2cccc3cccc(c23)C1=O` [1,3-Dioxo-1H-benz[de]isoquinoline-2(3H)-acetic acid], the “inhibition of aldose reductase (result in words)” value in test [1] is “effective inhibitor of aldose reductase”.

For the compound `COC(=O)CN(C)C(=S)c1cccc2c(C(F)(F)F)c(OC)ccc12` [Example 23, N-[[5-(trifluoromethyl)-6-methoxy-1-naphthalenyl]thioxomethyl]-N-methylglycine methyl ester], the “percentage decrease of dulcitol accumulation, lens (L)” value (“percentage decrease” for short) in test [2] (11 mg/kg/day in diet) stood at 10%. In test [3], the inhibition at 10 µM is 9%.

On to `CN(CC(=O)O)C(=S)c1cccc2c(Br)cccc12` [Example 32, N-[(5-Bromo-1-naphthalenyl)thioxomethyl]-N-methylglycine], for which, in test [2] (62 mg/kg/day in diet), the “percentage decrease” value turned out to be 14%. The “percentage decrease” value in test [2] (121 mg/kg/day in diet) is on record as 20%. In addition, the “percentage decrease” value in test [2] (189 mg/kg/day in diet) is 24%. In addition, in test [3], the inhibition at 10 µM came out at 93%, the inhibition at 1 µM was found to be 87% and the inhibition at 0.1 µM amounted to 47%.

With `CN(CC(=O)O)C(=S)c1cccc2c(Cl)cccc12` [Example 40, N-[(5-chloro-1-naphthalenyl)thioxomethyl]-N-methylglycine], the “percentage decrease” value in test [2] (156 mg/kg/day in diet) amounted to 34%. For the same compound, in test [3], the inhibition at 10 µM was 91%, the inhibition at 1 µM is 83% and the inhibition at 0.1 µM amounted to 40%.

For the compound `COc1ccc2c(C(=S)N(C)CC(=O)O)cccc2c1Br` [Example 41, N-[(5-bromo-6-methoxy-1-naphthalenyl)thioxomethyl]-N-methylglycine], the “percentage decrease” value in test [2] (162 mg/kg/day in diet) is on record as 34%. In test [3], the inhibition at 10 µM was determined as 99%, the inhibition at 1 µM was 91% and the inhibition at 0.1 µM came to 72%.

Regarding `COc1c(Cl)cc(C(=S)N(C)CC(=O)O)c2ccccc12` [Example 45, N-[(3-chloro-4-methoxy-1-naphthalenyl)thioxomethyl]-N-methylglycine], in test [2] (163 mg/kg/day in diet), the “percentage decrease” value is listed as 15%. In addition, in test [3], the inhibition at 10 µM was 85%, the inhibition at 1 µM was found to be 78% and the inhibition at 0.1 µM turned out to be 33%.

Regarding `CN(CC(=O)O)C(=S)c1cccc2c(Cl)cc(Cl)cc12` [Example 46, N-[(5,7-dichloro-1-naphthalenyl)thioxomethyl]-N-methylglycine], the “percentage decrease” value in test [2] (52 mg/kg/day in diet) was found to be 29%. For the same compound, in test [3], the inhibition at 10 µM stood at 88%, the inhibition at 1 µM stood at 75% and the inhibition at 0.1 µM is 29%.

For `CN(CC(=O)O)C(=S)c1cccc2c(C(F)(F)F)cccc12` [Example 53b, N-[[(5-trifluoromethyl)-1-naphthalenyl]thioxomethyl]-N-methylglycine], the “percentage decrease” value in test [2] (11 mg/kg/day in diet) is 2%. Further, in test [3], the inhibition at 10 µM is 93%, the inhibition at 1 µM was 84% and the inhibition at 0.1 µM was 33%.

Consider `O=C1NC(=O)[C@@]2(CCOc3ccc(F)cc32)N1` [sorbinil, (S)-6-Fluoro-2,3-dihydrospiro(4H-1-benzopyran-4,4'-imidazolidine)-2',5'-dione], for which the “inhibition of aldose reductase (result in words)” value in test [1] is reported as “aldose reductase inhibiting properties”.
